Patent publication US11058680B2, “Combinations of opioid/TLR4 antagonists and acetaminophen for use in the treatment of emotional pain and insomnia” (Allodynic Threapeutics, LLC, priority 2016, dated 2021)

System: emotional pain
Test: Migraine open-label pilot study: emotional pain on 4-point scale (emotional pain-free, emotional pain intensity)
Type: in vivo, human
Conditions: for Change in emotional pain-free / Change in emotional pain-intensity: baseline to 24 h; for Emotional pain-intensity at 24 hours post-dosing / Emotional pain-intensity at baseline: sum of severity of all patients
Method: Sixteen unique patients were enrolled in an open phase pilot study for the acute treatment of migraine attacks, insomnia, and emotional pain. Of the sixteen patients, eleven were evaluated for one migraine attack, one for two attacks, two for four attacks, one for six attacks, and one for fourteen attacks. A total of forty-one […] treatments were evaluated. Patients received a single dose of one of the following treatment options:
The majority of the patients remained in the clinic for observation for 2 hours after dosing. They completed headache diary assessments immediately before and after dosing at time points: 7, 15, and 30 minutes; and 1, 1.5, 2, 3, 6, 12, 24, and 48 hours. Headache pain was assessed on a 4-point scale (0=none; 1=mild; 2=moderate; 3=severe). The assessment of photophobia, phonophobia, nausea, and neck/shoulder pain was assessed as present or absent. The assessment of emotional pain was recorded on a 4-point scale (0=none, 1=mild, 2=moderate, 3=severe). The assessment of difficulty sleeping or falling asleep (insomnia) was assessed on a 4-point scale (0=none, 1=mild, 2=moderate, 3=severe) at baseline, for the night before treatment and for the following nights at 24, and 48 hours. Patients recorded side effects severity at each time point. Patients recorded the time of the first rescue medication dose and all additional headache medications used within 48 hours. Patients were required to stay awake to record their assessments in the first 2 hours, sleeping was permitted thereafter. While asleep, assessments were completed according to patients' best estimation. For data analysis, it was assumed that a migraine attack is a unique patient. Patients were asked to specify (yes or no answer) to whether they experienced emotional pain symptoms such as: hurt feelings, sadness, fear, or anger. Patients who replied positively to having emotional pain were asked to specify the cause into one of the following options: relationship, work/school, money/debt, health, or loss/grief.

[1] = 24 hours after dosing, naltrexone/acetaminophen 2.25 mg/325 mg (N=21), naltrexone 2.25 mg (N=9)
[2] = NTX/APAP 2.25 mg/325 mg, NTX 2.25 mg
[3] = NTX/APAP 3.25 mg/325 mg, NTX 3.25 mg

SMILES: O=C1CC[C@@]2(O)[C@H]3Cc4ccc(O)c5c4[C@@]2(CCN3CC2CC2)[C@H]1O5 [naltrexone]
- Emotional pain-free (90 min, all doses combined): 16 (100) n (%)
- Emotional pain-free (2 h, NTX/APAP 2.25 mg/325 mg, NTX 2.25 mg): 9 (100) n (%)
- Emotional pain-free (2 h, NTX/APAP 3.25 mg/325 mg, NTX 3.25 mg): 3 (100) n (%)
- Emotional pain-free (2 h, NTX/APAP 5 mg/325 mg, NTX 5 mg): 1 n (%)
- Emotional pain-free (2 h, NTX/APAP […]325 mg, NTX 1.5 mg): 3 (100) n (%)
- Emotional pain-free (2 h, combined doses): 16 (100)
- Emotional pain-free (3 h, NTX/APAP 2.25 mg/325 mg, NTX 2.25 mg): 9 (100) n (%)
- Emotional pain-free (3 h, NTX/APAP 3.25 mg/325 mg, NTX 3.25 mg): 3 (100) n (%)
- Emotional pain-free (3 h, NTX/APAP 5 mg/325 mg, NTX 5 mg): 1 (100) n (%)
- Emotional pain-free (3 h, NTX/APAP […]325 mg, NTX 1.5 mg): 3 (100) n (%)
- Emotional pain-free (3 h, combined doses): 16 (100) n (%)
- Emotional pain-free (4 h, NTX/APAP 2.25 mg/325 mg, NTX 2.25 mg): 9 (100) n (%)
- Emotional pain-free (4 h, NTX/APAP 3.25 mg/325 mg, NTX 3.25 mg): 3 (100) n (%)
- Emotional pain-free (4 h, NTX/APAP 5 mg/325 mg, NTX 5 mg): 1 (100) n (%)
- Emotional pain-free (4 h, NTX/APAP […]325 mg, NTX 1.5 mg): 3 (100) n (%)
- Emotional pain-free (4 h, combined doses): 15 (94) n (%)
- Emotional pain-free (6 h, NTX/APAP 2.25 mg/325 mg, NTX 2.25 mg): 9 (100) n (%)
- Emotional pain-free (6 h, NTX/APAP 3.25 mg/325 mg, NTX 3.25 mg): 3 (100) n (%)
- Emotional pain-free (6 h, NTX/APAP 5 mg/325 mg, NTX 5 mg): 1 (100) n (%)
- Emotional pain-free (6 h, NTX/APAP […]325 mg, NTX 1.5 mg): 3 (100) n (%)
- Emotional pain-free (6 h, combined doses): 15 (94) n (%)
- Emotional pain-free (12 h, NTX/APAP 2.25 mg/325 mg, NTX 2.25 mg): 9 (100) n (%)
- Emotional pain-free (12 h, NTX/APAP 3.25 mg/325 mg, NTX 3.25 mg): 3 (100) n (%)
- Emotional pain-free (12 h, NTX/APAP 5 mg/325 mg, NTX 5 mg): 1 (100) n (%)
- Emotional pain-free (12 h, NTX/APAP […]325 mg, NTX 1.5 mg): 3 (100) n (%)
- Emotional pain-free (12 h, combined doses): 15 (94) n (%)
- Emotional pain-free (24 h, NTX/APAP 2.25 mg/325 mg, NTX 2.25 mg): 9 (100) n (%)
- Emotional pain-free (24 h, NTX/APAP 3.25 mg/325 mg, NTX 3.25 mg): 3 (100) n (%)
- Emotional pain-free (24 h, NTX/APAP 5 mg/325 mg, NTX 5 mg): 1 (100) n (%)
- Emotional pain-free (24 h, NTX/APAP […]325 mg, NTX 1.5 mg): 3 (100) n (%)
- Emotional pain-free (24 h, combined doses): 15 (94)
- Emotional Pain-free at 24 hours after dosing (24 hours after dosing, NTX/APAP 2.25 mg/325 mg, NTX 2.25 mg): 9 (100) n (%)
- Emotional Pain-free at 24 hours after dosing (24 hours after dosing, NTX/APAP 3.25 mg/325 mg, NTX 3.25 mg): 3 n (%)
- Emotional Pain-free at 24 hours after dosing (24 hours after dosing, NTX/APAP 5 mg/325 mg, NTX 5 mg): 1 n (%)
- Emotional Pain-free at 24 hours after dosing (24 hours after dosing, NTX/APAP […]325 mg, NTX 1.5 mg): 3 n (%)
- emotional pain intensity change from baseline [1]: −55%
- emotional pain-free change from baseline [1]: 33%
- Emotional pain-free (48 h, NTX/APAP 2.25 mg/325 mg, NTX 2.25 mg): 9 (100)
- Emotional pain-free (48 h, NTX/APAP 3.25 mg/325 mg, NTX 3.25 mg): 3 (100)
- Emotional pain-free (48 h, NTX/APAP 5 mg/325 mg, NTX 5 mg): 1 (100)
- Emotional pain-free (48 h, NTX/APAP […]325 mg, NTX 1.5 mg): 3 (100)
- Emotional pain-free (48 h, combined doses): 13 (100) n (%)
- Change in emotional pain-free [2]: +3 (+33) n (%)
- Change in emotional pain-intensity [2]: −5 (−55) n (%)
- Change in emotional pain-intensity [3]: −1 (−100) n (%)
- Change in emotional pain-intensity (NTX/APAP 5 mg/325 mg, NTX 5 mg): −2 (−100) n (%)
- Change in emotional pain-free (NTX/APAP […]325 mg, NTX 1.5 mg): +1 n (%)
- Emotional pain-free at baseline [2]: 6 (66) n (%)
- Emotional pain-free at baseline [3]: 2 n (%)
- Emotional pain-free at baseline (NTX/APAP 5 mg/325 mg, NTX 5 mg): 0 n (%)
- Emotional pain-free at baseline (NTX/APAP […]325 mg, NTX 1.5 mg): 2 n (%)
- Emotional pain-intensity at 24 hours post-dosing [2]: 0 n (%)
- Emotional pain-intensity at 24 hours post-dosing [3]: 0 n (%)
- Emotional pain-intensity at 24 hours post-dosing (NTX/APAP 5 mg/325 mg, NTX 5 mg): 0 n (%)
- Emotional pain-intensity at 24 hours post-dosing (NTX/APAP […]325 mg, NTX 1.5 mg): 0 n (%)
- Emotional pain-intensity at baseline [2]: 5 (55) n (%)
- Emotional pain-intensity at baseline [3]: 1 n (%)
- Emotional pain-intensity at baseline (NTX/APAP 5 mg/325 mg, NTX 5 mg): 2 n (%)
- Emotional pain-intensity at baseline (NTX/APAP […]325 mg, NTX 1.5 mg): 2 n (%)
